Source: publication PMC11783601, “Analogue-Sensitive Inhibition of Histone Demethylases Uncovers Member-Specific Function in Ribosomal Protein Synthesis” (Journal of the American Chemical Society, 2025)
Entries after “also recorded” stand apart in the source; their conditions may differ.

How the values were obtained:
[1] = system: HEK293T cells; experiment: MTT assay; format: cell-based, human; details: near millimolar concentrations (100 to 800 µM, 24 hours)
Source text: We next examined the orthogonal pairs for their ability to modulate lysine demethylation on the chromosomal histone in cultured human cells (Figure 4A). To this end, we generated the F185A mutation in full-length KDM4A carrying all of the functional domains. Furthermore, to enhance cell permeability, we synthesized two chemoselective ester prodrugs 6A and 6B carrying either an n-octyl or a trifluoromethyl benzyl ester as the lipophilic moiety, respectively (Figures 4A, S5, and S6, Scheme S3).[46],[47] We confirmed the cell permeability of 6A and 6B and their subsequent hydrolysis to 6 by analyzing extracts of compound-treated HEK293T cells using LC-HRMS. […]
12. Examining cell permeability and toxicity of 6A and 6B
In a T-25 cell culture flask, HEK293T cells were treated with either 200 µM L-Leu octyl-ester NOG 6A, L-Leu TFMB-ester NOG 6B, or corresponding volume of DMSO. Following 24 hours of incubation at 37 °C, media was removed and 3mL of 80:20 methanol: water was added while the flasks with cells were on dry ice. The flasks were then incubated in -80 °C for 10 minutes to allow cell lysis. […]
To assess the toxicity of 6A/B on HEK 293-T cells (ATCC CRL-1573) were counted, and 5,000 cells were plated into a 96 well cell culture plate (Corning) for n=5 of each treatment. […] Absorbance at 570nm was quantified via TECAN Infinite […]

[2] = system: nascent protein synthesis in HEK293T cells; experiment: BONCAT: azidohomoalanine incorporation, TAMRA alkyne click, in-gel fluorescence; format: cell-based, human
Source text: Biochemical integrity and robust orthogonality of asKDM4-NOL pairs in cells strongly argue for their applicability in elucidating the regulatory functions of KDM4 members in cellular processes. […] To investigate the role of KDM4A in protein synthesis, we adapted the bioorthogonal noncanonical amino acid tagging (BONCAT) tactic which relies on the translational incorporation of an unnatural amino acid probe into newly synthesized proteins in cells (Figure 5A).[28] HEK293T cells expressing wild type KDM4A or its F185A mutant were treated with n-octyl IOX1 or 6A, and the synthesis of nascent proteins was tracked by pulsing the cells with azidohomoalanine (AHA). Isolated cellular extracts were subjected to copper-catalyzed click ligation with TAMRA alkyne,[50] separated on polyacrylamide gel and visualized at 532 nm light (lmax for TAMRA) to assess AHA incorporation. Overexpression of wild type KDM4A and the as variant (F185A) increased the amount of newly synthesized proteins compared to control vector-transfected cells (Figure 5B). […]
Millipore Ltd.) membrane was cut to size, activated with MeOH for 30 seconds and incubated in 10X SSC buffer for 5 minutes while shaking. The membrane was then placed on a 96-well Bio-Dot microfiltration apparatus (Bio-Rad), washed with 100µL of 10X SSC buffer and the RNA solution was applied, and vacuum filtered. Sample was then rinsed with 100µL of 10X SSC buffer.
The membrane was dried at 37 °C followed by crosslinking for 5 minutes with UV light at 254nm.
Membrane was then subject to the protocol mentioned in the section General Protocol for Western […]
16. Incorporation of Azidohomoalanine in HEK293T cells
HEK293T cells were passaged into a 6 well plate. The cells were grown overnight then transfected with 3 ug of indicated plasmid, KDM4A WT/F185A or KDM4D WT/F189A expression vector, […]
and 6 ug of Thermo Turbofect (FERR0531). KDM4A siRNA was transfected into cells using 10nM siRNA (Thermo 4392420) with 1:2 ug amount of Thermo Turbofect (FERR0531). Cells were washed 4 hours later and fresh DMEM was applied. The next day, the cells were treated with inhibitor (L-leucine NOG) and grown for 24 hours. […] The lysate was quantified with Bradford dye and 40 ug of lysate was incubated with 1 mM Tris[(1-benzyl-1H-1,2,3-triazol-4-yl)methyl]amine (TBTA […]
For analysis of AHA incorporation measured by fixed cell imaging, HEK293-T cells (ATCC CRL-1573) were grown in a 24 well plate (Corning) on poly-D-lysine (Gibco A3890401) treated glass coverslips (ThermoScientific 12-545-81P) overnight and transfected the next day with 500 ng KDM4A WT/F185A or Empty Vector (EV) equivalent using 1:2 ug of Thermo Turbofect (FERR0531). […]

SMILES | cytotoxicity [1] | nascent protein synthesis (TAMRA in-gel fluorescence) ([2]; HEK293T cells expressing F185A, 6A) | nascent protein synthesis (TAMRA in-gel fluorescence) ([2]; HEK293T cells, endogenous wild type KDM4A, 200 μM 6A) | nascent protein synthesis (TAMRA in-gel fluorescence) ([2]; HEK293T cells expressing wild type KDM4A, n-octyl IOX1) | nascent protein synthesis (TAMRA in-gel fluorescence) ([2]; HEK293T cells, endogenous KDM4A, 10 μM n-octyl IOX1)
CCCCCCCCOC(=O)C(=O)NC(CC(C)C)C(=O)O [6A, L-Leu octyl-ester NOG] | marginal cytotoxicity | sharp decline in protein synthesis; also recorded: subsequently inhibited | no effect on protein synthesis; also recorded: failed to inhibit protein synthesis |  | 
CC(C)CC(NC(=O)C(=O)OCc1cccc(C(F)(F)F)c1)C(=O)O [6B, L-Leu TFMB-ester NOG] | marginal cytotoxicity |  |  |  | 
CCCCCCCCOC(=O)c1ccc(O)c2ncccc12 [n-octyl IOX1] |  |  |  | sharp decline in protein synthesis; also recorded: subsequently inhibited | protein synthesis inhibition
